Patent US9686986B2, “Herbicidal compounds” (SYNGENTA LIMITED, priority 2011, dated 2017)

Tests used:
Test in all cases: Glasshouse herbicide test, pre- and post-emergence, percentage damage
Assay type in all cases: in vivo
[1] = test system: Ipomoea hederacea (IPOHE); settings: 1000 g/h, evaluated after 13 days, five point scale; for percentage damage caused to the plant, IPOHE, POST Application: post-emergence; for percentage damage caused to the plant, IPOHE, PRE Application: pre-emergence
Procedure: (§1) Seeds of a variety of test species are sown in standard soil in pots (Alopecurus myosuroides (ALOMY), Setaria faberi (SETFA), Stellaria media (STEME), Echinochloa crus-galli (ECHCG), Solanum nigrum (SOLNI), Amaranthus retoflexus (AMARE), Ipomoea hederacea (IPOHE), Lolium perenne (LOLPE). After cultivation for one day (pre-emergence) or after 8 days cultivation (post-emergence) under controlled conditions in a glasshouse (at 24/16° C., day/night; 14 hours light; 65% humidity), the plants are sprayed with an aqueous spray solution derived from the formulation of the technical active ingredient in acetone/water (50:50) solution containing 0.5% Tween 20 (polyoxyethelyene sorbitan monolaurate, CAS RN 9005-64-5). Compounds ae applied at 1000 g/h. The test plants are then grown in a glasshouse under controlled conditions in a glasshouse (at 24/16° C., day/night; 14 hours light; 65% humidity) and watered twice daily. After 13 days for pre and post-emergence, the test is evaluated for the percentage damage caused to the plant. The biological activities are shown in the following table on a five point scale (5=80-100%; 4=60-79%; 3=40-59%; 2=20-39%; 1=0-19%).

[2] = test system: Alopecurus myosuroides (ALOMY); settings: 1000 g/h, evaluated after 13 days, five point scale; for percentage damage caused to the plant, ALOMY, POST Application: post-emergence; for percentage damage caused to the plant, ALOMY, PRE Application: pre-emergence
Procedure: as §1

[3] = test system: Setaria faberi (SETFA); settings: 1000 g/h, evaluated after 13 days, five point scale; for percentage damage caused to the plant, SETFA, POST Application: post-emergence; for percentage damage caused to the plant, SETFA, PRE Application: pre-emergence
Procedure: as §1

[4] = test system: Echinochloa crus-galli (ECHCG); settings: 1000 g/h, evaluated after 13 days, five point scale; for percentage damage caused to the plant, ECHCG, POST Application: post-emergence; for percentage damage caused to the plant, ECHCG, PRE Application: pre-emergence
Procedure: as §1

[5] = test system: Solanum nigrum (SOLNI); settings: 1000 g/h, evaluated after 13 days, five point scale; for percentage damage caused to the plant, SOLNI, POST Application: post-emergence; for percentage damage caused to the plant, SOLNI, PRE Application: pre-emergence
Procedure: as §1

[6] = test system: Amaranthus retoflexus (AMARE); settings: 1000 g/h, evaluated after 13 days, five point scale (Table B1); for percentage damage caused to the plant, AMARE, POST Application: post-emergence; for percentage damage caused to the plant, AMARE, PRE Application: pre-emergence
Procedure: as §1

Compound | percentage damage caused to the plant, IPOHE, POST Application [1] | percentage damage caused to the plant, IPOHE, PRE Application [1] | percentage damage caused to the plant, ALOMY, POST Application [2] | percentage damage caused to the plant, ALOMY, PRE Application [2] | percentage damage caused to the plant, SETFA, POST Application [3] | percentage damage caused to the plant, SETFA, PRE Application [3] | percentage damage caused to the plant, ECHCG, POST Application [4] | percentage damage caused to the plant, ECHCG, PRE Application [4] | percentage damage caused to the plant, SOLNI, POST Application [5] | percentage damage caused to the plant, SOLNI, PRE Application [5] | percentage damage caused to the plant, AMARE, POST Application [6] | percentage damage caused to the plant, AMARE, PRE Application [6]
Cn1nnnc1NC(=O)c1ccc(S(C)(=O)=O)c(COCC(F)(F)F)c1Cl [Compound 1.001] | 5 (5=80-100%) | 5 (5=80-100%) | 5 (5=80-100%) | 5 (5=80-100%) | 5 (5=80-100%) | 5 (5=80-100%) | 5 (5=80-100%) | 5 (5=80-100%) | 5 (5=80-100%) | 5 (5=80-100%) | 5 (5=80-100%) | 5 (5=80-100%)
Cn1nnnc1NC(=O)c1ccc(C(F)(F)F)cc1S(C)(=O)=O [Compound 1.003] | 5 (5=80-100%) | 5 (5=80-100%) | 5 (5=80-100%) | 5 (5=80-100%) | 5 (5=80-100%) | 5 (5=80-100%) | 5 (5=80-100%) | 5 (5=80-100%) | 5 (5=80-100%) | 5 (5=80-100%) | 5 (5=80-100%) | 5 (5=80-100%)
CCCn1nnnc1NC(=O)c1cc(Cl)ccc1Cl [Compound 1.004] | 5 (5=80-100%) | 1 (1=0-19%) | 1 (1=0-19%) | 1 (1=0-19%) | 1 (1=0-19%) | 1 (1=0-19%) | 1 (1=0-19%) | 1 (1=0-19%) | 5 (5=80-100%) | 4 (4=60-79%) | 4 (4=60-79%) | 5 (5=80-100%)
CCc1nc(C(C)F)ccc1C(=O)Nc1nnnn1C (stereo not drawn) [Compound 1.005] | 5 (5=80-100%) | 5 (5=80-100%) | 2 (2=20-39%) | 3 (3=40-59%) | 2 (2=20-39%) | 3 (3=40-59%) | 5 (5=80-100%) | 5 (5=80-100%) | 5 (5=80-100%) | 5 (5=80-100%) | 5 (5=80-100%) | 5 (5=80-100%)
COCCOCc1nc(C(C)(F)F)ccc1C(=O)Nc1nnnn1C [Compound 1.008] | 5 (5=80-100%) | 5 (5=80-100%) | 5 (5=80-100%) | 5 (5=80-100%) | 5 (5=80-100%) | 5 (5=80-100%) | 5 (5=80-100%) | 5 (5=80-100%) | 5 (5=80-100%) | 5 (5=80-100%) | 5 (5=80-100%) | 5 (5=80-100%)
Cn1nnnc1NC(=O)c1cc(Cl)ccc1C(F)(F)F [Compound 1.009] | 5 (5=80-100%) | 4 (4=60-79%) | 5 (5=80-100%) | 5 (5=80-100%) | 1 (1=0-19%) | 1 (1=0-19%) | 2 (2=20-39%) | 2 (2=20-39%) | 5 (5=80-100%) | 5 (5=80-100%) | 5 (5=80-100%) | 5 (5=80-100%)
Cn1nnnc1NC(=O)c1cc(F)ccc1C(F)(F)F [Compound 1.010] | 5 (5=80-100%) | 5 (5=80-100%) | 5 (5=80-100%) | 5 (5=80-100%) | 2 (2=20-39%) | 2 (2=20-39%) | 4 (4=60-79%) | 4 (4=60-79%) | 5 (5=80-100%) | 5 (5=80-100%) | 5 (5=80-100%) | 5 (5=80-100%)
Cn1nnnc1NC(=O)c1cc(F)c(F)cc1[N+](=O)[O-] [Compound 1.011] | 2 (2=20-39%) | 1 (1=0-19%) | 1 (1=0-19%) | 1 (1=0-19%) | 1 (1=0-19%) | 1 (1=0-19%) | 2 (2=20-39%) | 1 (1=0-19%) | 2 (2=20-39%) | 1 (1=0-19%) | 3 (3=40-59%) | 5 (5=80-100%)
Cn1nnnc1NC(=O)c1cc(Br)c(Cl)cc1F [Compound 1.012] | 5 (5=80-100%) | 1 (1=0-19%) | 2 (2=20-39%) | 1 (1=0-19%) | 4 (4=60-79%) | 1 (1=0-19%) | 3 (3=40-59%) | 1 (1=0-19%) | 4 (4=60-79%) | 1 (1=0-19%) | 5 (5=80-100%) | 4 (4=60-79%)
Cc1ccc([N+](=O)[O-])c(C(=O)Nc2nnnn2C)c1 [Compound 1.013] | 5 (5=80-100%) | 4 (4=60-79%) | 2 (2=20-39%) | 2 (2=20-39%) | 1 (1=0-19%) | 2 (2=20-39%) | 1 (1=0-19%) | 1 (1=0-19%) | 5 (5=80-100%) | 5 (5=80-100%) | 4 (4=60-79%) | 5 (5=80-100%)
Cc1ccc(C(F)(F)F)c(C(=O)Nc2nnnn2C)c1 [Compound 1.014] | 5 (5=80-100%) | 4 (4=60-79%) | 3 (3=40-59%) | 4 (4=60-79%) | 1 (1=0-19%) | 1 (1=0-19%) | 3 (3=40-59%) | 3 (3=40-59%) | 5 (5=80-100%) | 5 (5=80-100%) | 5 (5=80-100%) | 5 (5=80-100%)
